In ChEMBL document CHEMBL3045032, “Triptolide suppresses lipopolysaccharide-induced activity of toll-like receptor 4 in mouse macrophage cell line RAW 264.7” (Med Chem Res, 2012) one finds Activity and inhibition data, which are given here for one compound.

Common to all, as to format: functional, cell-based
Assay [1] has as its system RAW264.7. Put plainly: Effect on HSP70 mRNA level in Mus musculus (mouse) RAW264.7 cells pretreated for 1 hr before treatment with 100 ng/ml LPS for 6 hr by RT-PCR analysis.
Assay [2] relates to RAW264.7. Put plainly: Inhibition of LPS-induced IL-6 level in Mus musculus (mouse) RAW264.7 cells pretreated for 1 hr before treatment with 100 ng/ml LPS for 6 hr by ELISA. For orientation: An ELISA detects its analyte on a solid surface through an enzyme-linked reagent.
The subject of assay [3] is RAW264.7. Description: Inhibition of LPS-induced TNF-alpha level in Mus musculus (mouse) RAW264.7 cells pretreated for 1 hr before treatment with 100 ng/ml LPS for 6 hr by ELISA.
The subject of assay [4] is RAW264.7. Put plainly: Effect on HSP70 protein level in Mus musculus (mouse) RAW264.7 cells pretreated for 1 hr before treatment with 100 ng/ml LPS for 6 hr by RT-PCR analysis.
Assay [5] deals with RAW264.7. Put plainly: Inhibition of LPS-induced TLR4 expression in Mus musculus (mouse) RAW264.7 cells pretreated for 1 hr before treatment with 100 ng/ml LPS for 6 hr by Western blot analysis.
The subject of assay [6] is RAW264.7. Description: Inhibition of LPS-induced TLR4 expression in Mus musculus (mouse) RAW264.7 cells pretreated for 1 hr before treatment with 100 ng/ml LPS for 6 hr by RT-PCR analysis.

The source made the active and inactive calls. The rule behind the calls is not given here.

With `CC(C)[C@]12O[C@H]1[C@@H]1O[C@]13[C@]1(O[C@H]1C[C@H]1C4=C(CC[C@@]13C)C(=O)OC4)[C@@H]2O`, the result with RAW264.7 [1] and with RAW264.7 [4] was inactive. The inhibition entry in the assay with RAW264.7 [2], in the assay on RAW264.7 [3], with RAW264.7 [5] and in the assay on RAW264.7 [6] was “Dose-dependent effect” each time.
